Data on 22 molecules can be found in PubChem BioAssay AID328 (DTP/NCI, 2004).

The assay concerns BDF1 mice, P388 leukemia ip, median survival T/C. The assay can be described thus: NCI In Vivo Anticancer Drug Screen. Data for tumor model P388 Leukemia (intraperitoneal) in B6D2F1 (BDF1) mice. As to conditions: endpoint: median survival time, higher = longer survival. Put shortly:
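Survival ratio, drug arm over vehicle arm, in mice with a transplanted tumour.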

[1] abbreviates: dose: 50.0 mg/kg/injection, schedule: Q01DX009 (ip), vehicle: Klucel (hydroxypropylcellulose) (HPC).
Where [2] appears, read: dose: 50.0 mg/kg/injection, schedule: Q04DX003 (ip), vehicle: saline with Tween-80.
Setting [3] is: dose: 100.0 mg/kg/injection, schedule: Q04DX003 (ip), vehicle: saline with Tween-80.
The mark [4] stands for this setting: dose: 50.0 mg/kg/injection, schedule: Q01DX009 (ip), vehicle: saline with Tween-80.
The mark [5] stands for this setting: dose: 100.0 mg/kg/injection, schedule: Q01DX009 (ip), vehicle: saline with Tween-80.
Setting [6] is: dose: 200.0 mg/kg/injection, schedule: Q01DX009 (ip), vehicle: saline with Tween-80.
Setting [7] is: dose: 100.0 mg/kg/injection, schedule: Q01DX009 (ip), vehicle: saline.
The mark [8] stands for this setting: dose: 200.0 mg/kg/injection, schedule: Q01DX009 (ip), vehicle: saline.
[9] abbreviates: dose: 400.0 mg/kg/injection, schedule: Q01DX009 (ip), vehicle: saline.
The mark [10] stands for this setting: dose: 400.0 mg/kg/injection, schedule: Q04DX003 (ip), vehicle: saline.
Setting [11] is: dose: 50.0 mg/kg/injection, schedule: Q01DX009 (ip), vehicle: saline.
[12] abbreviates: dose: 100.0 mg/kg/injection, schedule: Q04DX003 (ip), vehicle: Klucel (hydroxypropylcellulose) (HPC).
Setting [13] is: dose: 400.0 mg/kg/injection, schedule: Q04DX003 (ip), vehicle: Klucel (hydroxypropylcellulose) (HPC).

Where “and” joins values, the source holds several entries; their conditions need not be identical. Equal values may be shown once. Toxic doses and inconclusive results are not listed.

Consider `COc1cc2cc[n+](C)c(Cc3ccccc3)c2cc1OC`, for which the T/C runs as follows: (dose: 12.5 mg/kg/injection, schedule: Q01DX009 (ip), vehicle: saline with Tween-80) 100 % of control; under setting [1], 159 % of control; under setting [2], 113 % of control; under setting [3], 90 % of control.
For the molecule `COc1ccc(OC)c(/C=C/c2ccnc3ccccc23)c1`, the T/C is 95 % of control (dose: 50.0 mg/kg/injection, schedule: Q01DX010 (ip), vehicle: saline); 110 % of control (dose: 100.0 mg/kg/injection, schedule: Q01DX010 (ip), vehicle: saline); 150 % of control (dose: 200.0 mg/kg/injection, schedule: Q01DX010 (ip), vehicle: saline); 165 % of control (dose: 400.0 mg/kg/injection, schedule: Q01DX010 (ip), vehicle: saline).
On to `CCOC(=O)c1ccc(NC(N)=O)cc1`, for which the T/C was 100 % of control (dose: 25.0 mg/kg/injection, schedule: Q04DX003 (ip), vehicle: saline with Tween-80); 102 % of control under setting [2]; 99 % of control under setting [3].
For `O=[N+]([O-])c1ccc(Sc2ccc(Cl)cc2)c2c1no[n+]2[O-]`, the T/C reads like this: (dose: 15.0 mg/kg/injection, schedule: Q01DX009 (ip), vehicle: saline with Tween-80) 112 % of control; (dose: 30.0 mg/kg/injection, schedule: Q01DX009 (ip), vehicle: saline with Tween-80) 112 % of control; (dose: 60.0 mg/kg/injection, schedule: Q01DX009 (ip), vehicle: saline with Tween-80) 112 % of control.
Regarding `COC(CCC#N)c1ccc(C)cc1` (centres undefined), the T/C (dose: 25.0 mg/kg/injection, schedule: Q04DX003 (sc), vehicle: olive oil, sesame oil, peanut oil) is 100 % of control; the T/C (dose: 50.0 mg/kg/injection, schedule: Q04DX003 (sc), vehicle: olive oil, sesame oil, peanut oil) is 95 % of control; the T/C (dose: 100.0 mg/kg/injection, schedule: Q04DX003 (sc), vehicle: olive oil, sesame oil, peanut oil) was 100 % of control.
For the molecule `Cc1c[n+]([O-])cc(C)c1[N+](=O)[O-]`, the T/C reads like this: (dose: 25.0 mg/kg/injection, schedule: Q01DX009 (ip), vehicle: saline with Tween-80) 100 % of control; under setting [4], 90 % of control; under setting [5], 90 % of control; under setting [6], 100 % of control; (dose: 400.0 mg/kg/injection, schedule: Q01DX009 (ip), vehicle: saline with Tween-80) 100 % of control.
Consider `CC1(C)N=C(N)N=C(N)N1c1ccc(Cl)c(Cl)c1`, for which the T/C was 122 % of control (dose: 7.2 mg/kg/injection, schedule: Q01DX009 (ip), vehicle: Klucel (hydroxypropylcellulose) (HPC)); 181 % of control (dose: 16.0 mg/kg/injection, schedule: Q01DX009 (ip), vehicle: Klucel (hydroxypropylcellulose) (HPC)); 120 % of control (dose: 20.0 mg/kg/injection, schedule: Q04DX003 (ip), vehicle: Klucel (hydroxypropylcellulose) (HPC)); 172 % of control (dose: 22.5 mg/kg/injection, schedule: Q01DX009 (ip), vehicle: Klucel (hydroxypropylcellulose) (HPC)); 154 % of control (dose: 26.0 mg/kg/injection, schedule: Q04DX003 (ip), vehicle: Klucel (hydroxypropylcellulose) (HPC)); 95 % of control (dose: 30.0 mg/kg/injection, schedule: Q01DX009 (ip), vehicle: Klucel (hydroxypropylcellulose) (HPC)). Also, the T/C (dose: 40.0 mg/kg/injection, schedule: Q04DX003 (ip), vehicle: Klucel (hydroxypropylcellulose) (HPC)) is 231 % of control and 158 % of control.
As to `CCCCCCC/C=N/N=C/CCCCCCC`, the T/C is 100 % of control (dose: 100.0 mg/kg/injection, schedule: Q01DX009 (ip), vehicle: other); 109 % of control (dose: 100.0 mg/kg/injection, schedule: Q04DX003 (ip), vehicle: other); 122 % of control (dose: 178.0 mg/kg/injection, schedule: Q01DX009 (ip), vehicle: other); 109 % of control (dose: 200.0 mg/kg/injection, schedule: Q04DX003 (ip), vehicle: other); 104 % of control (dose: 400.0 mg/kg/injection, schedule: Q01DX009 (ip), vehicle: other).
Consider `COC1OC(CNC(=O)N(C)N=O)C(O)C(O)C1O` (centres undefined), for which the T/C runs as follows: under setting [7], 164 % of control; under setting [8], 240 % of control; (dose: 266.0 mg/kg/injection, schedule: Q04DX003 (ip), vehicle: saline) 154 % of control; under setting [9], 309 % of control; under setting [10], 162 % of control; (dose: 600.0 mg/kg/injection, schedule: Q04DX003 (ip), vehicle: saline) 216 % of control.
`CCCCCCCCCCCC[N+](C)(C)CC(O)C[N+](C)(C)CCCCCCCCCCCC`: the T/C was 102 % of control (dose: 3.13 mg/kg/injection, schedule: Q01DX009 (ip), vehicle: saline) and 107 % of control (dose: 6.25 mg/kg/injection, schedule: Q01DX009 (ip), vehicle: saline).
For the molecule `CC1=NN(c2ccc(S(=O)(=O)O)cc2)C(=O)/C1=C/c1ccc(Cl)cc1`, the T/C is, setting by setting: under setting [11], 92 % of control; under setting [7], 90 % of control.
For the molecule `COC(=O)c1ccc([N+](=O)[O-])c(OC)c1`, the T/C is, setting by setting: (dose: 75.0 mg/kg/injection, schedule: Q04DX003 (ip), vehicle: saline) 100 % of control; (dose: 150.0 mg/kg/injection, schedule: Q04DX003 (ip), vehicle: saline) 100 % of control; (dose: 300.0 mg/kg/injection, schedule: Q04DX003 (ip), vehicle: saline) 104 % of control.
In the case of `COc1ccc2nc(C)c(COC(C)=O)c(Cl)c2c1`, the T/C reads like this: under setting [11], 104 % of control; (dose: 100.0 mg/kg/injection, schedule: Q04DX003 (ip), vehicle: saline) 104 % of control; under setting [8], 104 % of control; (dose: 200.0 mg/kg/injection, schedule: Q04DX003 (ip), vehicle: saline) 105 % of control; under setting [9], 101 % of control; under setting [10], 90 % of control.
With `CC(=O)C1=CN(Cc2ccccc2)C(O)CC1C(N)=O` (centres undefined), the T/C by setting is: under setting [4], 101 % of control; under setting [5], 109 % of control; under setting [6], 115 % of control.
`Cc1ccc(S(=O)(=O)N/N=C/c2ccccc2)cc1`: the T/C was 93 % of control (dose: 25.0 mg/kg/injection, schedule: Q04DX003 (ip), vehicle: Klucel (hydroxypropylcellulose) (HPC)); 97 % of control (dose: 50.0 mg/kg/injection, schedule: Q04DX003 (ip), vehicle: Klucel (hydroxypropylcellulose) (HPC)); 103 % of control under setting [12]; 106 % of control under setting [13].
Turning to `COc1ccc(OC)c(/C=C/C(=O)NCC(O)CO)c1` (centres undefined), the T/C is, setting by setting: under setting [4], 95 % of control; under setting [5], 100 % of control.
Consider `CS(=O)(=O)Nc1ccc(NS(C)(=O)=O)cc1`, for which the T/C runs as follows: (dose: 100.0 mg/kg/injection, schedule: Q01DX001 (ip), vehicle: saline with Tween-80) 112 % of control; (dose: 200.0 mg/kg/injection, schedule: Q01DX001 (ip), vehicle: saline with Tween-80) 100 % of control; (dose: 400.0 mg/kg/injection, schedule: Q01DX001 (ip), vehicle: saline with Tween-80) 100 % of control.
Consider `COc1cc(-n2c(CCc3nc(-c4ccc(Cl)cc4)no3)n[nH]c2=S)c(OC)cc1Cl`, for which the T/C by setting is: under setting [4], 100 % of control; under setting [5], 103 % of control; under setting [6], 110 % of control.
For `OCCN1CCN(CC/C=C2\c3ccccc3COc3ccc(Cl)cc32)CC1`, the T/C (dose: 6.25 mg/kg/injection, schedule: Q04DX003 (ip), vehicle: saline) was 107 % of control and the T/C (dose: 25.0 mg/kg/injection, schedule: Q04DX003 (ip), vehicle: saline) was 109 % of control.
As for `CCOC(=O)CS(=O)(=O)c1ccc(NC(C)=O)cc1`, the T/C was 104 % of control under setting [1]; 91 % of control and 120 % of control (dose: 100.0 mg/kg/injection, schedule: Q01DX009 (ip), vehicle: Klucel (hydroxypropylcellulose) (HPC)); 96 % of control and 115 % of control (dose: 200.0 mg/kg/injection, schedule: Q01DX009 (ip), vehicle: Klucel (hydroxypropylcellulose) (HPC)); 105 % of control (dose: 400.0 mg/kg/injection, schedule: Q01DX009 (ip), vehicle: Klucel (hydroxypropylcellulose) (HPC)).
For the molecule `CC(=O)N1CSCC1C(=O)O` (centres undefined), the T/C runs as follows: under setting [12], 100 % of control; (dose: 200.0 mg/kg/injection, schedule: Q04DX003 (ip), vehicle: Klucel (hydroxypropylcellulose) (HPC)) 100 % of control; under setting [13], 100 % of control.
As to `Cc1cc(C)c(N)c(Br)c1C`, the T/C runs as follows: under setting [5], 100 % of control; under setting [6], 87 % of control.
